In article PMC12765074, “Mechanistic insights into enterocin C targeting the undecaprenyl phosphate recycling protein BacA” (The Journal of Biological Chemistry, 2025):
Entries after “also recorded” stand apart in the source; their conditions may differ.

Legend:
BacAef [1] = target: T1, BacAef (Enterococcus faecalis, UniProt A0ACD6TE02); experiment: DSS crosslinking; format: binding; conditions: BacAef and peptide 17 μM each, DSS 100- or 1000-fold excess, 30 min, 4 °C
Method: Crosslinking experiments were performed using the amine-reactive, membrane-permeable, and non-cleavable crosslinker disuccinimidyl suberate (DSS) purchased from Sigma. EntC peptides and BacA protein were mixed at equimolar concentrations (17 μM) in buffer D in the presence of an excess of DSS crosslinker (1000-fold or 100-fold) in a final reaction volume of 20 μl. The reaction was incubated for 30 min at 4°C, and any unreacted DSS was quenched with 50 mM Tris-HCl. After separation on a 12% acrylamide gel, proteins were electrotransferred onto polyvinylidene difluoride (PVDF) membrane, and BacA was detected using peroxidase-coupled anti-His tag antibody (Penta-His HRP conjugate from Qiagen, RRID: AB_3699318) by chemiluminescence detection (Western Lightning Plus-ECL, PerkinElmer) using the ChemiDoc MP system (Bio-Rad).

BacAef [2] = target: T1, BacAef; experiment: UppS-coupled C55-PP phosphatase assay in liposomes, BacAef; format: biochemical; conditions: liposomes
Method: The reconstitution of BacA and PgpB in liposomes was achieved through adapted protocols previously described ([48]). Liposomes were prepared by rehydrating a lipid film of DOPC: DOPG: DOPE (3 mg: 0.75 mg: 1.25 mg) after 4 h of desiccation by adding 1 ml of buffer (20 mM HEPES, pH 7.5, 50 mM NaCl, 15% glycerol). […] The lipid suspension underwent 10 freeze-thaw cycles in liquid nitrogen and was extruded through a 100 nm polycarbonate membrane (Millipore). Protein reconstitution was performed by destabilizing the liposomes with 5.5 mM Triton X-100 for 15 min. The protein was added at a final concentration of 15 μg/ml and the mixture was incubated at 4 °C for 15 min.
The liposomes were used to measure the C55-PP phosphatase activity of BacA in a membrane environment as follows. For each kinetic assay, 5 μl of a reaction mixture containing 20 μM C15-PP, 20 μM [^14C]C5-PP, 180 μM C5-PP in 20 mM HEPES, pH 7.5, 50 mM NaCl, and 15% glycerol were mixed with 5 μl of protein-free liposomes (as a control) or BacA-containing liposomes. The mixture was then supplemented with UppS at a final concentration of 0.2 mg/ml to initiate the enzymatic synthesis of C55-PP. The EntC peptides were added at various concentrations from a water solution. […] Substrates and products were separated and quantified by thin-layer chromatography as previously described for C55-PP phosphatase assay in detergent.

[3] = tested on: E. faecalis (V583-derivative strain, WT); format: cell-based, Enterococcus faecalis; conditions: 6 μl droplets on a lawn of E. faecalis, BHI 0.75% agar, overnight; representative of three independent experiments
BacAef [4] = target: T1, BacAef; format: binding
Method: Thermal stability of BacA protein in different mixtures of peptides was performed by DSC on a MicroCal model VP-DSC (Malvern Panalytical, Malvern, UK). BacA (33 μM) was mixed with different mixtures of peptides at twice the BacA concentration (i.e. 66 μM). Each measurement was preceded by a baseline scan with the standard buffer. Scans were performed at 1 K/min (60 °C/h) temperature ramp between 30 °C and 100 °C. The heat capacity of the buffer was subtracted from that of the protein sample before analysis. The thermodynamic parameters were determined by fitting the data to the following equation: ΔCp(T)=Kd(T)ΔHcalΔHvH/[1+Kd(T)]^2RT^2 where Kd is the equilibrium constant for a two-state process, ΔHvH the enthalpy calculated based on a two-state process and ΔHcal the measured enthalpy.

BacAef/EntC1 = BacAef/EntC1 (Enterococcus faecalis, UniProt A0ACD6TE02+Q9L9U6); experiment: ITC, BacAef/EntC1 mixture; format: binding
Method: (§1) ITC experiments were performed with an ITC200 isothermal titration calorimeter from MicroCal (Malvern Panalytical, Malvern, UK). The experiments were carried out at 20 °C. The protein concentration in the microcalorimeter cell (0.2 ml) was 33 μM. Nineteen 2-μl injections of peptides at 400 μM were performed at intervals of 240 s while stirring at 500 rpm. To limit buffer mismatching effect between the cell and the syringe, and the heat-of-dilution effect for having glycerol in the protein solution, the latter were extensively dialyzed, prior to the ITC measurement, in a buffer containing 20 mM Tris-HCl pH 7.4, 200 mM NaCl, 0.1% DDM, to remove glycerol. Then, the dialysis buffer was used to dilute the EntC peptides to further limit buffer mismatching. The experimental data were fitted to theoretical titration curves with the software supplied by MicroCal (ORIGIN). This software uses the relationship between the heat generated by each injection and ΔH (enthalpy change in kcal/mol), Ka (the association binding constant in M^−1), n (the number of binding sites), total protein concentration and free and total ligand concentrations.

BacAef [5] = target: T1, BacAef; format: biochemical
BacAef/LcnGα = BacAef/LcnGα (Enterococcus faecalis, UniProt A0ACD6TE02); experiment: ITC, BacAef/LcnGα mixture; format: binding; conditions: 20 °C
Method: as §1

BacAef [6] = target: T1, BacAef; experiment: ITC, BacAef; format: binding; conditions: 20 °C; for -TΔS / ΔG / ΔH: into [BacAef] 33 μM
Method: as §1

[7] = target: N-terminal His6-tagged BacA from E. faecalis (BacAef) (Enterococcus faecalis); experiment: ITC; peptides (400 μM) in the syringe titrated into the protein, or the protein premixed with one peptide, (33 μM) in the cell; 20 °C; 20 mM Tris-HCl pH 7.4, 200 mM NaCl, 0.1% DDM; single binding site model
[8] = target: N-terminal His6-tagged BacA from E. faecalis (BacAef) (Enterococcus faecalis)
[9] = target: N-terminal His6-tagged BacA from E. faecalis (BacAef) (Enterococcus faecalis); experiment: cross-linking; DSS (100- or 1000-fold excess), peptides and BacA at equimolar 17 μM in buffer D (20 mM HEPES pH 7.5, 0.2 M NaCl, 10% glycerol, 0.1% DDM), 30 min at 4 °C, quenched with 50 mM Tris-HCl; SDS-PAGE and anti-His blot of BacA
[10] = target: N-terminal His6-tagged BacA from E. faecalis (BacAef) (Enterococcus faecalis); remark: listed apart in the source
[11] = target: N-terminal His6-tagged BacA from E. faecalis (BacAef) (Enterococcus faecalis); experiment: ITC; EntC1 (400 μM) in the syringe titrated into a mixture containing BacAef and EntC2 (33 μM) in the cell; 20 °C; 20 mM Tris-HCl pH 7.4, 200 mM NaCl, 0.1% DDM
[12] = target: BacAef + LcnGα mixture (Enterococcus faecalis | Lactococcus lactis); experiment: ITC; peptides (400 μM) in the syringe titrated into the protein, or the protein premixed with one peptide, (33 μM) in the cell; 20 °C; 20 mM Tris-HCl pH 7.4, 200 mM NaCl, 0.1% DDM; single binding site model
[13] = target: N-terminal His6-tagged BacA from E. faecalis (BacAef) (Enterococcus faecalis); remark: listed apart in the source
L. lactis IL1403 = experiment: spot-on-lawn antibacterial assay, L. lactis; format: cell-based, Lactococcus lactis; conditions: 6 μl droplets, L. lactis IL1403, M17G agar, overnight
L. lactis strains = conditions: ref [6], [7], [8], cited from earlier work
[14] = target: Fluorescein-labelled EntC1 (Enterococcus faecalis C901); experiment: flow-induced dispersion analysis (FIDA)
[15] = target: Fluorescein-labelled EntC1 (Enterococcus faecalis C901); experiment: flow-induced dispersion analysis (FIDA); as the titration without EntC2, but in the presence of 200 nM EntC2 (twice the concentration of Fluo-EntC1); 25 °C; 20 mM Tris-HCl pH 7.4, 200 mM NaCl, 0.1% DDM; 1:1 binding model
[16] = ITC, 20 °C, into [BacAef/EntC1]
[17] = ITC, peptides 400 μM into [BacAef] 33 μM, 20 mM Tris-HCl pH 7.4, 200 mM NaCl, 0.1% DDM, at least triplicate

CC[C@H](C)[C@H](NC(=O)CNC(=O)[C@H](CCCCN)NC(=O)[C@H](C)NC(=O)[C@H](CC(C)C)NC(=O)CNC(=O)[C@H](C)NC(=O)[C@@H](NC(=O)[C@H](Cc1ccccc1)NC(=O)[C@H](CC(=O)O)NC(=O)[C@H](Cc1ccc(O)cc1)NC(=O)[C@H](C)NC(=O)[C@@H]1CCCN1C(=O)[C@H](CCC(N)=O)NC(=O)[C@H](CC(C)C)NC(=O)[C@H](Cc1c[nH]c2ccccc12)NC(=O)[C@@H]1CCCN1C(=O)[C@H](CC(C)C)NC(=O)[C@H](Cc1c[nH]c2ccccc12)NC(=O)[C@H](CCCCN)NC(=O)CNC(=O)[C@@H]1CCCN1C(=O)CN)C(C)C)C(=O)NCC(=O)N[C@@H](CCCCN)C(=O)N[C@@H](CCC(=O)O)C(=O)NCC(=O)N[C@@H](CC(N)=O)C(=O)N[C@@H](CCCCN)C(=O)N[C@@H](CC(N)=O)C(=O)N[C@@H](CCCCN)C(=O)N[C@@H](Cc1c[nH]c2ccccc12)C(=O)N[C@@H](CCCCN)C(=O)N[C@@H](CC(N)=O)C(=O)N[C@H](C(=O)O)C(C)C (single isomer, unassigned) [EntC2]
crosslinked complex band with BacAef (SDS-PAGE, western blot) (BacAef [1]): a very faint band
effect on BacAef activity in liposomes (BacAef [2]): no effect
antibacterial activity (spot-on-lawn), E. faecalis [3]: neither peptide exhibited antibacterial activity when applied individually
DSC signal change of BacAef (BacAef [4]; EntC2 at twice the concentration of BacAef): did not change the DSC signal
affinity of second binding event relative to EntC1 binding (fold) (BacAef/EntC1; EntC2 into BacAef/EntC1 versus EntC1 into BacAef): about 10 -fold
n (BacAef/EntC1; ITC, 20 °C, 400 μM into [BacAef/EntC1] 33 μM): 0.95 ± 0.01
-TΔS (BacAef/EntC1; [16]): 6.5 kcal/mol
ΔG (BacAef/EntC1; [16]): -10.3 kcal/mol
ΔH (BacAef/EntC1; [16]): -16.8 kcal/mol
inhibition of BacAef C55-PP phosphatase activity (BacAef [5]; DDM micelles, EntC2 up to 50 μM, pH 7.4, 37 °C, 10 min): no inhibition
n (BacAef/LcnGα; 400 μM into [BacAef/LcnGα] 33 μM): 0.77 ± 0.01
-TΔS (BacAef/LcnGα; into [BacAef/LcnGα]): 10.5 kcal/mol
ΔG (BacAef/LcnGα; into [BacAef/LcnGα]): -9.0 kcal/mol
ΔH (BacAef/LcnGα; into [BacAef/LcnGα]): -19.5 kcal/mol
-TΔS (BacAef [6]; ITC): No binding
ΔG (BacAef [6]; ITC): No binding
ΔH (BacAef [6]; ITC): No binding
KD (BacAef [6]; [17]): No binding
binding to BacAef (ITC, words) (BacAef [6]; titration on BacAef alone): No binding

[Ca+2].[Cl-].[Cl-] [CaCl2]
restoration of BacAef activity following EDTA treatment (BacAef [5]; after 500 μM EDTA, pH 7.5, 0.1% DDM): restored

O=C(O)CN(CCN(CC(=O)O)CC(=O)O)CC(=O)O [EDTA]
effect on BacAef C55-PP phosphatase activity (BacAef [5]): inhibited its activity

EntC1-LcnGβ chimera bacteriocin (EntC1 and LcnGβ together) (complex)
Kd [7]: 0.307 µM
dH [7]: -19.4 kcal/mol
stoichiometry N [7]: 0.79

Enterocin C peptide EntC1 (mature, synthetic)
DSC: Tm of BacAef (33 μM) with the peptide at 66 μM (66.3°C without peptide) [8]: 73 °C
DSC: enthalpy of denaturation ΔH of BacAef (33 μM) with the peptide at 66 μM (26.7 kcal/mol without peptide) [8]: 45.3 kcal/mol
stoichiometry N [9]: 1
IC50 of inhibition of the C55-PP phosphatase activity of BacAef in DDM micelles [10]: 0.8 µM
Kd [7]: 0.306 µM
dH [7]: -5.4 kcal/mol
stoichiometry N [7]: 0.6
Kd [11]: 0.48 µM
dH [11]: -27.6 kcal/mol
stoichiometry N [11]: 0.69

Enterocin C peptide EntC2 (mature, synthetic)
dH [12]: -19.5 kcal/mol
stoichiometry N [12]: 0.77

Lactococcin G (LcnGα and LcnGβ together) (complex)
IC50 of inhibition of the C55-PP phosphatase activity of BacAef in vitro [13]: 0.8 µM
Kd [7]: 0.165 µM
dH [7]: -20.4 kcal/mol
stoichiometry N [7]: 0.62

Lactococcin G [LcnG, reference compound]
antibacterial activity (spot-on-lawn), E. faecalis [3]: E. faecalis was only susceptible to EntC; also recorded: inactive against E. faecalis
difference in Tm between EntC and LcnG complexes with BacAef (BacAef [4]; LcnG versus EntC): 6.8 °C
difference in ΔH between EntC and LcnG complexes with BacAef (BacAef [4]; LcnG versus EntC): 7.8 kcal/mol
antibacterial activity (spot-on-lawn), L. lactis (L. lactis IL1403): sensitivity to both bacteriocins
IC50 (BacAef [5]; DDM micelles, 20 mM Tris-HCl pH 7.4, 400 μM CaCl2, 150 mM NaCl, 0.1% DDM, 50 μM [14C]C55-PP, 10 min, 37 °C, TLC, EntC vs EntC1 p-value = 0.0007, read-out: IC50, BacAef C55-PP phosphatase activity): 0.8 µM
membrane permeabilization (L. lactis strains; 1:1 ratio of LcnGα and LcnGβ): membrane permeabilization to monovalent cations
antibacterial activity against L. lactis strains (L. lactis strains): antibacterial activity at nanomolar concentrations
-TΔS (BacAef [6]; ITC): 11.3 kcal/mol
ΔG (BacAef [6]; ITC): -9.1 kcal/mol
ΔH (BacAef [6]; ITC): -20.4 kcal/mol
Kd (BacAef [6]; [17]): 0.165 ± 0.019 µM
n (BacAef [6]; ITC, peptides 400 μM into [BacAef] 33 μM, pH 7.4, 0.1% DDM, at least triplicate): 0.62 ± 0.01

N-terminal His6-tagged BacA from E. faecalis (BacAef) (enzyme)
Kd [14]: 0.096 µM
stoichiometry N [9]: 2
Kd [15]: 0.086 µM
